Measurements: patent publication US20240115649A1, “CASPASE INHIBITION TO ENHANCE REGENERATION AND REPAIR AFTER SKIN OR GUT INJURY AND TO TREAT BACTERIAL OR VIRAL INFECTIONS” (The Johns Hopkins University, priority 2020, published 2024)
Where a SMILES comes first, the peptide text is derived from it. The star is where a group is joined. Cbz = O=C(OCc1ccccc1)*; CH2F = FC*

Key:
[1] = tested on: mouse epithelial keratinocytes; assay: Mouse epithelial keratinocyte culture (qRT-PCR, immunoblot); settings: for IL-36α protein (whole-cell lysates): mouse epithelial keratinocytes
[2] = tested on: mouse neutrophils; assay: Neutrophil cultures with live S. aureus ± caspase inhibitors; settings: live S. aureus 6 hours, Q-VD-OPH 10 μg/mL, Emricasan 9 μg/mL
[3] = tested on: BMDMs; assay: BMDM cultures with live S. aureus ± caspase inhibitors; settings: live S. aureus 6 hours, Q-VD-OPH 10 μg/mL, Emricasan 9 μg/mL
[4] = tested on: human keratinocytes; assay: Human keratinocyte culture (qRT-PCR, immunostaining)
Method: Human and Mouse Keratinocyte Isolation and Culture.
Quantitative real-time PCR (qRT-PCR).
Immunofluorescence, immunocytochemistry, and immunohistochemistry. […] After washing and permeabilization in TBS-T universal buffer (0.2% Triton X-100 in tris-buffered saline), sections were blocked at room-temperature in 5% goat, donkey or fetal bovine serum with 1% bovine serum albumin. […] Following subsequent washing, sections were incubated in fluorescent-dye conjugated secondary antibodies diluted in antibody diluent for 1 hour at room temperature. After final washing, sections were mounted with […] ® Hardset™ Antifade Mounting Medium with DAPI (Vector Laboratories, H-1500) for nuclear staining. Human keratinocytes were prepared similarly, with the exception of antigen retrieval. All slides were imaged using either the DFC365FX (Leica) or Eclipse E-800 (Nikon) at 10×, 20×, and 40× magnifications.

[5] = tested on: neogenic hair follicles; assay: Wound Induced Hair Neogenesis (WIHN) assay; type: in vivo, mice
Method: Wound Induced Hair Neogenesis (WIHN) Assay. All in vivo experimental surgical procedures were performed as previously characterized ^1,2,6-8. In short, after exposure to vaporizing anesthesia (Baxter, Isoflurane) the dorsal side of male and female 3-week-old (21 days) mice were shaved at approximately 8-10 g of weight. Using surgical scissors, approximately 1.26 cm^2×1.25 cm^2 of skin was excised creating wounds deep into the fascia. At 3 days post-wounding, a single dose (50 μl) of 100 μg/mL high molecular weight (HMW) polyinosinic-polycytidylic acid (Poly (I:C)) (Invivogen, tlrl-pic) was administered underneath the scab site via injection in both wild-type and transgenic mice as previously described^2,8. For functional experiments characterizing IL-36 on WIHN, a single dose (50 μl) of 1 μg/mL recombinant mouse IL-36α protein (R&D Systems, 7059-ML/CF) was injected underneath the scab site at 7 days post-wounding. For rescue experiments using the small molecule, broad spectrum pan-caspase inhibitor, 20 ul of 5 mg/mL Q-VD-OPh (in DMSO) was diluted 130 μL of phosphate-buffered saline (PBS) (1.33 mM final concentration) and injected intraperitoneally in mice 24 hours prior to wounding and approximately 10 days after wounding (scab detachment).
Immunofluorescence, immunocytochemistry, and immunohistochemistry.

[6] = no significant differences vs no treatment
[7] = RNase L siRNA transfected human keratinocytes, 10 μg/ml

## C[C@H](NC(=O)C(=O)Nc1ccccc1C(C)(C)C)C(=O)N[C@@H](CC(=O)O)C(=O)COc1c(F)c(F)cc(F)c1F [Emricasan]
[1]
  IL-36α protein (whole-cell lysates): increased
[2]
  percentages of TNF+ neutrophils: 25.47%
[2]; [6]
  viable cells (Zombie UV negative cells): ~50%
[3]
  percentages of TNF+ BMDMs: 33.53%
[3]; [6]
  viable cells (Zombie UV negative cells): ~80%

## CC(C)(O)c1coc(S(=O)(=O)NC(=O)Nc2c3c(cc4c2CCC4)CCC3)c1 [MCC950]
[4]; MCC950 100 μM, further increased by exogenous dsRNA addition
  regeneration (morphogenesis) markers: greater regeneration markers than controls

## COC(=O)CC[C@H](NC(=O)[C@H](Cc1c[nH]c2ccccc12)NC(=O)OCc1ccccc1)C(=O)N[C@@H](Cc1cnc[nH]1)C(=O)N[C@@H](CC(=O)OC)C(=O)CF [Z-WEHD-FMK] (Cbz-WE(OMe)HD(OMe)-CH2F)
[1]; 48 hrs treatment
  IL-36 receptor (IL36r) expression: not affected
  IL-36 receptor antagonist (IL-36m) protein or mRNA levels: not affected
  Tlr3 expression: elevated
  caspase gene mRNA (inflammatory caspases 1 and 4): elevated
[1]
  IL-36α protein (whole-cell lysates): increased

## polyinosinic-polycytidylic acid [poly (I:C)]
[4]; [7]
  differentiation markers: inhibits differentiation markers
  morphogenesis markers: induces multiple morphogenesis markers
[1]; after siRNA-mediated RNase L loss, poly (I:C) 10 μg/ml, 48 hrs
  Il36α and Casp1 levels: boosted
[5]; Il36r^−/− mice
  WIHN (hair follicle regeneration): not responsive
[5]; Rnasel^−/− mice, poly (I:C) under the scab 3 days post-wounding
  WIHN: intact super-increase

B1: rmIL-36a: recombinant mouse IL-36α protein (R&D Systems, 7059-ML/CF) (protein, UniProt Q9JLA2 8-160, looked up)
Interleukin-36 alpha: RAASPSLRHVQDLSSRVWILQNNILTAVPRKEQTVPVTITLLPCQYLDTLETNRGDPTYMGVQRPMSCLFCTKDGEQPVLQLGEGNIMEMYNKKEPVKASLFYHKKSGTTSTFESAAFPGWFIAVCSKGSCPLILTQELGEIFITDFEMIVVH
[5]; 50 μl of 1 μg/mL injected underneath the scab at 7 days post-wounding, vs vehicle-treated controls
  increase in the number of neogenic hair follicles: > 2 fold

B2: recombinant IL-36α: recombinant IL-36α used to treat human keratinocytes (protein, UniProt Q9UHA7 6-158, looked up)
Interleukin-36 alpha: KIDTPQQGSIQDINHRVWVLQDQTLIAVPRKDRMSPVTIALISCRHVETLEKDRGNPIYLGLNGLNLCLMCAKVGDQPTLQLKEKDIMDLYNQPEPVKSFLFYHSQSGRNSTFESVAFPGWFIAVSSEGGCPLILTQELGKANTTDFGLTMLF
[4]; qRT-PCR
  WNT7B mRNA expression: promotes WNT7B expression
